In patent US7435721B2, “Transport peptides such as C-terminal Erns peptide and analogues thereof” (Pepscan Systems B.V., priority 2000, dated 2008):
In brackets after ≈: the same amount, converted by molar mass. Read-outs that look alike come from different tables or passages of the source.

Legend:
[1] = test system: live cells in suspension or subconfluent monolayers; type: cell-based
skin of a live pig = conditions: transdermal transport; skin model not given
Protocol: Transdermal transport. The potential of the an E^rns peptide to penetrate the skin was tested by applying 150 μl 0.3-4 mM of biotinylated peptide in a chamber containing an isolated piece of “fresh” human breast skin or in a chamber which was glued on the skin of a live pig, or applying 50 μl of peptide solution on the skin with a cotton wool tip, or applying 50 μl of a peptide solution mixed with 50 μl of contact gel on the skin for 30 minutes to 120 minutes. After the incubation time, the pig was killed, the skin was cleaned and biopsied, and a biopsy was frozen in liquid nitrogen. Cryosections of the skin samples were fixed on microscopic slides with acetone and incubated with streptavidin-FITC ( 1/100) for 30 minutes.

guinea pig erythrocytes = experiment: Hemolytic assay, guinea pig erythrocytes; type: cell-based; conditions: 1% v/v, one hour at 37° C.
Protocol: Hemolytic assay. Hemolytic activity of various peptide concentrations was determined by incubation with human, guinea pig or sheep erythrocyte suspensions (final erythrocyte concentration, 1% v/v) for one hour at 37° C. After cooling and centrifugation, the optical density of the supernatants were measured at 540 nm. Peptide concentrations causing 50% hemolysis (EC50) were derived from the dose-response curves.

EBTr cells = conditions: EBTr, 75 minutes incubation, growth checked after 3 to 6 days
[2] = test system: Escherichia coli ATCC 25922; experiment: Antimicrobial assay (MIC), E. coli; type: cell-based; conditions: overnight at 37° C.
Protocol: Antimicrobial assay. Two bacterial strains (Escherichia coli ATCC 25922 and Enterococcus faecalis ATCC 29212) were inoculated on heart infusion agar with 5% sheep blood and incubated aerobically overnight at 37° C. From the pure cultures, suspensions were made in saline to a density of 0.5 McFarland. These suspensions were diluted ten-fold in Mueller Hinton II broth, resulting in a final inoculum of approximately 10^7 cfu/ml.
Standard 96-well microtiter trays were filled with 100 ill of two-fold dilutions of peptide in physiologic salt solution in each well, resulting in the following concentration range: 4000, 2000, 1000, 500, 250, 125, 62.25, 31.63, 15.82, 7.96 and 0 μg/ml. The trays in column 12 were filled with 200 μl MH II broth (negative control).
Columns 1-11 of the microtiter trays were filled with 100 μl of the final inoculum of the bacterial suspensions, thus diluting the concentrations of the peptide two fold, resulting in the following peptide concentration range in the wells: 2000, 1000, 500, 250, 125, 62.25, 31.63, 15.82, 7.96, 3.98 and 0 μg/ml. In rows B, C and D, 100 μl of the final inoculum of E. coli and, in rows E, F and G, 100 μl of the final inoculum of E. faecalis was pipetted. The final bacterial concentration was approximately 5×10^5 cfu/well. All trays were sealed and incubated overnight at 37° C. After incubation, the microtiter trays were inspected visually for bacterial growth and the absorbance of the cultures at 630 nm (A630) was determined with an ELISA-reader. […] The experiment was performed independently in triplicate. The test was repeated again in triplicate after two days with the final peptide concentration range in the wells: 5000, 2500, 1250, 625, 312.5, 156.25, 78.12, 39.06, 19.58, 9.79, 4.88, 2.44 and 1.22 μg/ml.

HeLa cells = conditions: HeLa, 75 minutes incubation, growth checked after 3 to 6 days
[3] = Table 9, lower concentration = higher translocation activity

Molecule	Hemolysis (peptide concentration causing 50% hemolysis) (guinea pig erythrocytes) [mg/mL]	MIC (minimal inhibitory concentration needed to inhibit bacterial growth) [2] [µg/mL]	further results
Biotin-RSRGRLRRGAIRLQRG-Lysine (MTT)- broomacetic acid [A941]			Concentration (translocation activity), optimization of E^rns peptide [1]: 0.03 µM; Translocation activity (in words) [1]: higher translocation activity compared with the original MDK-20; Accumulation in the skin compared with MDK-20 (skin of a live pig): Much more accumulation in the skin
CC[C@H](C)[C@H](NC(=O)[C@H](CCCNC(=N)N)NC(=O)[C@H](CC(C)C)NC(=O)[C@H](CCC(N)=O)NC(=O)[C@H](CCCNC(=N)N)NC(=O)CNC(=O)[C@H](CC(C)C)NC(=O)[C@H](Cc1c[nH]c2ccccc12)NC(=O)[C@H](CO)NC(=O)[C@@H](NC(=O)[C@@H](NC(=O)[C@H](CCCNC(=N)N)NC(=O)[C@H](C)NC(=O)[C@H](C)NC(=O)CNC(=O)[C@H](CCC(N)=O)NC(=O)[C@H](CCCNC(=N)N)NC(=O)CCCC[C@@H]1SC[C@@H]2NC(=O)N[C@@H]21)C(C)C)[C@@H](C)O)C(=O)N[C@@H](C)C(=O)NCC(=O)N[C@@H](CCCCN)C(=O)N[C@@H](CCCNC(=N)N)C(=O)N[C@@H](CC(C)C)C(=O)N[C@@H](CCC(=O)O)C(=O)NCC(=O)N[C@@H](CCCNC(=N)N)C(=O)N[C@@H](CO)C(=O)N[C@@H](CCCCN)C(N)=O [194-220]	0.26	50 (≈ 15.3 µM)	Peptide concentration that inhibits cell growth (EBTr cells): 60 µM; Concentration at which biotinylated peptide was still (faintly) detectable [1]: 125 nM; Concentration (translocation activity), optimization of E^rns peptide [1, 3]: 1.0 µM; Peptide concentration that inhibits cell growth (HeLa cells): 40 µM
CC[C@H](C)[C@H](NC(=O)[C@H](CCCNC(=N)N)NC(=O)[C@H](CC(C)C)NC(=O)[C@H](CCC(N)=O)NC(=O)[C@H](CCCNC(=N)N)NC(=O)CNC(=O)[C@H](CC(C)C)NC(=O)[C@H](Cc1c[nH]c2ccccc12)NC(=O)[C@H](CO)NC(=O)[C@@H](NC(=O)[C@@H](NC(=O)[C@H](CCCNC(=N)N)NC(=O)[C@H](C)NC(=O)[C@H](C)NC(=O)CNC(=O)[C@H](CCC(N)=O)NC(=O)[C@H](CCCNC(=N)N)NC(=O)[C@H](C)NC(=O)[C@H](CC(N)=O)NC(=O)[C@H](CCC(=O)O)NC(=O)CCCC[C@@H]1SC[C@@H]2NC(=O)N[C@@H]21)C(C)C)[C@@H](C)O)C(=O)N[C@@H](C)C(=O)NCC(=O)N[C@@H](CCCCN)C(=O)N[C@@H](CCCNC(=N)N)C(=O)N[C@@H](CC(C)C)C(=O)N[C@@H](CCC(=O)O)C(N)=O [191-216]	>0.33	95 (≈ 30 µM)	
CC[C@H](C)[C@H](NC(=O)[C@H](CCCNC(=N)N)NC(=O)[C@H](CC(C)C)NC(=O)[C@H](CCC(N)=O)NC(=O)[C@H](CCCNC(=N)N)NC(=O)CNC(=O)[C@H](CC(C)C)NC(=O)[C@H](Cc1c[nH]c2ccccc12)NC(=O)[C@H](CO)NC(=O)[C@@H](NC(=O)[C@@H](NC(=O)[C@H](CCCNC(=N)N)NC(=O)[C@H](C)NC(=O)[C@H](C)NC(=O)CNC(=O)[C@H](CCC(N)=O)NC(=O)[C@H](CCCNC(=N)N)NC(=O)[C@H](C)NC(=O)[C@H](CC(N)=O)NC(=O)[C@H](CCC(=O)O)NC(=O)[C@@H](NC(=O)[C@@H](NC(=O)[C@H](CC(N)=O)NC(=O)[C@@H](NC(=O)[C@H](CCSC)NC(=O)CNC(=O)[C@H](CC(=O)O)NC(=O)CCCC[C@@H]1SC[C@@H]2NC(=O)N[C@@H]21)[C@@H](C)O)[C@@H](C)O)[C@@H](C)CC)C(C)C)[C@@H](C)O)C(=O)N[C@@H](C)C(=O)NCC(=O)N[C@@H](CCCCN)C(=O)N[C@@H](CCCNC(=N)N)C(=O)N[C@@H](CC(C)C)C(=O)N[C@@H](CCC(=O)O)C(=O)NCC(=O)N[C@@H](CCCNC(=N)N)C(=O)N[C@@H](CO)C(=O)N[C@@H](CCCCN)C(=O)N[C@H](C(=O)N[C@@H](Cc1c[nH]c2ccccc12)C(=O)N[C@@H](Cc1ccccc1)C(N)=O)[C@@H](C)O [184-223]	0.15	46 (≈ 9.67 µM)	
CC[C@H](C)[C@H](NC(=O)[C@H](CCCNC(=N)N)NC(=O)[C@H](CC(C)C)NC(=O)[C@H](CCC(N)=O)NC(=O)[C@H](CCCNC(=N)N)NC(=O)CNC(=O)CCCC[C@@H]1SC[C@@H]2NC(=O)N[C@@H]21)C(=O)N[C@@H](C)C(=O)NCC(=O)N[C@@H](CCCCN)C(=O)N[C@@H](CCCNC(=N)N)C(=O)N[C@@H](CC(C)C)C(=O)N[C@@H](CCC(=O)O)C(=O)NCC(=O)N[C@@H](CCCNC(=N)N)C(=O)N[C@@H](CO)C(=O)N[C@@H](CCCCN)C(N)=O [205-220]	>0.33	>500	Concentration (translocation activity), optimization of E^rns peptide [1, 3]: 1.0 µM
CC[C@H](C)[C@H](NC(=O)[C@H](CCCNC(=N)N)NC(=O)[C@H](CC(C)C)NC(=O)[C@H](CCC(N)=O)NC(=O)[C@H](CCCNC(=N)N)NC(=O)CNC(=O)[C@H](CC(C)C)NC(=O)[C@H](Cc1c[nH]c2ccccc12)NC(=O)[C@H](CO)NC(=O)[C@@H](NC(=O)[C@@H](NC(=O)[C@H](CCCNC(=N)N)NC(=O)[C@H](C)NC(=O)[C@H](C)NC(=O)CNC(=O)[C@H](CCC(N)=O)NC(=O)[C@H](CCCNC(=N)N)NC(=O)[C@H](C)NC(=O)[C@H](CC(N)=O)NC(=O)[C@H](CCC(=O)O)NC(=O)[C@@H](NC(=O)[C@@H](NC(=O)[C@H](CC(N)=O)NC(=O)[C@@H](NC(=O)[C@H](CCSC)NC(=O)CNC(=O)[C@H](CC(=O)O)NC(=O)[C@H](CC(C)C)NC(=O)[C@H](CC(C)C)NC(=O)[C@H](Cc1ccc(O)cc1)NC(=O)[C@H](CC(C)C)NC(=O)[C@H](C)NC(=O)[C@@H](NC(=O)[C@H](CC(=O)O)NC(=O)[C@H](CCC(N)=O)NC(=O)[C@H](CC(C)C)NC(=O)[C@H](CC(C)C)NC(=O)[C@H](CO)NC(=O)CNC(=O)CCCC[C@@H]1SC[C@@H]2NC(=O)N[C@@H]21)[C@@H](C)O)[C@@H](C)O)[C@@H](C)O)[C@@H](C)CC)C(C)C)[C@@H](C)O)C(=O)N[C@@H](C)C(N)=O [172-211]	>0.33	>500	
CC[C@H](C)[C@H](NC(=O)[C@H](CCCNC(=N)N)NC(=O)[C@H](CC(C)C)NC(=O)[C@H](CCC(N)=O)NC(=O)[C@H](CCCNC(=N)N)NC(=O)CNC(=O)[C@H](CC(C)C)NC(=O)[C@H](Cc1c[nH]c2ccccc12)NC(=O)[C@H](CO)NC(=O)[C@@H](NC(=O)[C@@H](NC(=O)[C@H](CCCNC(=N)N)NC(=O)[C@H](C)NC(=O)[C@H](C)NC(=O)CNC(=O)[C@H](CCC(N)=O)NC(=O)[C@H](CCCNC(=N)N)NC(=O)[C@H](C)NC(=O)[C@H](CC(N)=O)NC(=O)[C@H](CCC(=O)O)NC(=O)CCCC[C@@H]1SC[C@@H]2NC(=O)N[C@@H]21)C(C)C)[C@@H](C)O)C(=O)N[C@@H](C)C(=O)NCC(=O)N[C@@H](CCCCN)C(=O)N[C@@H](CCCNC(=N)N)C(=O)N[C@@H](CC(C)C)C(=O)N[C@@H](CCC(=O)O)C(=O)NCC(=O)N[C@@H](CCCNC(=N)N)C(=O)N[C@@H](CO)C(=O)N[C@@H](CCCCN)C(=O)N[C@H](C(=O)N[C@@H](Cc1c[nH]c2ccccc12)C(=O)N[C@@H](Cc1ccccc1)C(N)=O)[C@@H](C)O [191-223]	0.15	41 (≈ 10.2 µM)	
